In patent US11932653B2, “Lycorine derivative, and pharmaceutical composition and use thereof” (priority 2018, dated 2024):
“And” between values parts separate entries of the source, which are not always exact repeats. Equal values may be shown once.

Columns and labels:
[1] = Pharmacokinetic experiment in plasma; format: in vivo; settings: male ICR mice, Compound 6 1.5 mg/kg ip
Protocol: (§1) Male ICR mice weighing 20-22 g were intraperitoneally injected with Compound 6 (1.5 mg/kg), and then blood was taken from the orbit at 5 min, 10 min, 15 min, 30 min, 1 h, 2 h, 4 h, 6 h, 8 h, 12 h, and 24 h. The heparin anticoagulant was added, placed on ice, and centrifuged at 7000 r/min for 7 min. The plasma was separated for use. 60 μl of acetonitrile was added to 20 μL of the plasma sample obtained after administration, to precipitate the protein. After high-speed centrifugation at 13300 r/min for 7 min, 60 μl of the supernatant was taken and centrifuged at 13300 r/min for 4 min. 5 μl of the supernatant was taken for UPLC/MS analysis. Plasma pharmacokinetics was analyzed by Winnolin software and fitted by a non-compartmental model.
as §1, with “Compound 20” for “Compound 6”, “protein. […]” for “protein. After high-speed centrifugation at 13300 r/min for 7 min, 60 μl of the supernatant was taken and centrifuged at 13300 r/min for 4 min. 5 μl of the supernatant was taken for UPLC/MS analysis.”

EV71 [2] = experiment: In-vitro experiment against EV71 virus (RD cells, MTT); format: cell-based
Protocol: (§2) RD cells were seeded into a 96-well plate (10^4 cells/well), and infected with 100× TCID50 of EV71 viruses. After 2 hrs, various concentrations of the derivative were added. […] Uninfected cells were also given various concentrations of the derivative to determine the CC50.

[3] = Cytotoxicity in uninfected RD cells (CC50, MTT); format: cell-based; settings: human, Table 1
Protocol: as §2
(§3) RD cells were seeded into a 96-well plate (10^4 cells/well), and infected with 100×TCID50 of CAV16 viruses. After 2 hrs, various concentrations of the derivative were added. […] Uninfected cells were also given various concentrations of the derivative to determine the CC50.

CAV16 = experiment: In-vitro experiment against Coxsackievirus A16 (CAV16) (RD cells, MTT); format: cell-based, Coxsackievirus Virus A16 (CAV16)
Protocol: as §3

EV71 [4] = experiment: Therapeutic effect on EV71-infected mice; format: in vivo, ICR mice; settings: 7 days
Protocol: 10-day-old SPF grade ICR mice (female:male 1:1) were used. A placebo group and a treatment group with Compound 1 were set, each group having 10 mice. The mice were infected with the virus by intraperitoneal injection. 2 hrs after infection, the mice were administered by intraperitoneal injection. The dosage of Compound 1 was set to 1 mg/kg body weight/day. The mice in the placebo group were injected with the same dose of normal saline, and the mice in each group were administered once a day for consecutive 7 days. From the day of virus infection, the observation was made twice a day for 14 days. The weight, symptoms and survival rate of the mice were recorded.

Molecule | t1/2z ([1]; title: metabolite of Compound 6, individual animals 1-3, 1.5 mg/kg) | t1/2z Mean ± SD ([1]; title: metabolite of Compound 6, mean of 3) [h] | EC50 (EV71 [2]; Enterovirus A, RD cells infected with 100x TCID50 EV71, compound added after 2 hrs, MTT at 48 hrs) [µM] | SI (EV71 [2]; selectivity index, EV71, RD cells) | CC50 at 48 h [3] [µM] | EC50 (CAV16; Coxsackievirus, RD cells infected with 100x TCID50 CAV16, compound added after 2 hrs, MTT at 48 hrs) [µM] | SI (CAV16; selectivity index, CAV16, RD cells) | mortality rate (EV71 [4]; 10-day-old ICR mice infected ip with EV71, 1 mg/kg body weight/day ip, observed 14 days, placebo 100%) [%] | recovery of surviving mice (EV71 [4]; EV71-infected ICR mice, 1 mg/kg/day ip, after 14 days) | symptoms, weight loss and paralysis (EV71 [4]; EV71-infected ICR mice, 1 mg/kg/day ip, versus placebo)
1-(4-fluoro-phenoxyacetyl)-lycorine [Compound 6] | 25.719 h and 14.311 h and 26.875 h | 22.3 ± 6.94 | – | – | – | – | – | – | – | –
O=C(COc1ccccc1)OC1C(O)C=C2CCN3Cc4cc5c(cc4C1C23)OCO5 (stereo not shown) [Compound 1, 1-phenoxyacetyl-lycorine] | – | – | 1.64 | 72.41 | 119 | 1.19 | 99.80 | 40 | the surviving mice recover to normal after 14 days | reduced symptoms, and significantly alleviated weight loss and paralysis
